Laboratory results as given in patent US20210247400A1, “ACTIVATION OF PATTERN-TRIGGERED IMMUNITY IN PLANTS BY LIPOOLIGOSACCHARID-SPECIFIC REDUCED ELICITATION (LORE) AND VARIANTS THEREOF” (Technische Universität München, priority 2018, published 2021).

Key:
LORE [1] = target: T1, LORE (Arabidopsis thaliana, UniProt O64782); test: ROS detection in Arabidopsis leaves (leaf discs); assay type: cell-based; settings: 5 μM, leaf discs Col-0 or lore-5, FIG. 2D
T1 construct: aequorin-expressing wild-type (Col-0^AEQ) or lore-1 mutant seedlings; endogenous in cells; host or cells: Arabidopsis thaliana Col-0 / Col-0^AEQ seedlings and leaf discs
T1 sequence (O64782 22-805): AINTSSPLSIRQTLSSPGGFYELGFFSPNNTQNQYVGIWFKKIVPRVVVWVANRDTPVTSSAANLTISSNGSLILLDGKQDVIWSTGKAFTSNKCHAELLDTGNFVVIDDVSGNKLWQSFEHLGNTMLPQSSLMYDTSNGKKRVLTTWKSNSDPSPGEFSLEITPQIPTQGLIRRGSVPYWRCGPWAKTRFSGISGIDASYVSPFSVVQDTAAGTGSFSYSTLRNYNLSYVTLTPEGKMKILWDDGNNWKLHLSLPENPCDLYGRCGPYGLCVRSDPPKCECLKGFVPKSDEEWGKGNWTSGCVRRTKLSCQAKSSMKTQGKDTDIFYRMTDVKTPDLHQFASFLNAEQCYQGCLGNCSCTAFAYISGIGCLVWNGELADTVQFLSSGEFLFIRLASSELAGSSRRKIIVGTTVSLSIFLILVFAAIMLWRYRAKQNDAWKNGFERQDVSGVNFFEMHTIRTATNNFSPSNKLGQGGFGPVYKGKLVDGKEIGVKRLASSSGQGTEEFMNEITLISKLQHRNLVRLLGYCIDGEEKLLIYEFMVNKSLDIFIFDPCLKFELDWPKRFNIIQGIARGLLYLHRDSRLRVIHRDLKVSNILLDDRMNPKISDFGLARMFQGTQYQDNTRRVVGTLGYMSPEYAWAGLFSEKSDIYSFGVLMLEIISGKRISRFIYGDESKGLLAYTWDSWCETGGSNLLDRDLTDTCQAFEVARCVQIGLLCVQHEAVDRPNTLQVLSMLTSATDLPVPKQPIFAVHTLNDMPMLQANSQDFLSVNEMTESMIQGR
Description: ROS production was monitored as described (Ranf et al., 2015) in 3 mm leaf discs from 6-8 weeks-old soil-grown plants in 100 μl 5 μM L-012 (WAKO chemicals) and 2 μg/ml horseradish peroxidase (Type II, Roche) in MP-dH2O. For experiments including 4-OH-10:0 (19) and 5-OH-10:0 (20), 10 mM Tris pH 8 was added to the L-012/HRP mix. Luminescence was recorded as relative light units (RLU) in 1 min intervals using a Luminoskan Ascent 2.1 (Thermo Scientific) or a Tecan F200. After 10 min background reading, elicitors were added to the final concentrations indicated and luminescence readings continued over 45-60 min. Data are depicted after normalization to average ROS levels 5 min before elicitor application and subtraction of water or MeOH controls that were included for each genotype on the same plate.

LORE [2] = target: T1, LORE; test: PTI in Arabidopsis (biological assays, LORE dependence); assay type: cell-based; settings: for early PTI signalling reactions / elicitor activity / PTI responses: 5 μM, [Ca^2+]cyt and ROS; for early PTI signalling reactions: short-term exposure, FIG. 4D-E; for elicitor activity: FIG. 3B-E, FIG. 6B; for PTI responses ([Ca^2+]cyt signalling, ROS production, defence gene induction, MAPK activation; ROS in LORE-GFP-expressing N. benthamiana): FAs 1-5 μM, compared to mc-3-OH-FAs, FIG. 2A-G; for PTI responses: FIG. 3A,B
LORE [3] = target: T1, LORE; test: Aequorin luminescence measurements of [Ca^2+]cyt elevations in Arabidopsis seedlings; assay type: cell-based; settings: for elicitor activity ([Ca^2+]cyt response): 5 μM, Col-0^AEQ or lore-1 seedlings, FIG. 2H-J
Description: Aequorin luminescence measurements were performed essentially as described (Ranf et al., 2012). In short, 8- to 10-days-old liquid-grown apoaequorin-expressing seedlings were placed individually in 96-well plates in MP-dH2O containing 5-10 μM coelenterazine-h (p.j.k. GmbH) in the dark overnight. Luminescence was recorded by scanning 2 rows in 10 sec intervals using a Luminoskan Ascent 2.1 (Thermo Scientific). Remaining aequorin was discharged by addition of 150 μl 2 M CaCl2) with 20% EtOH per well. [Ca^2+]cyt concentrations were calculated as L/Lmax (luminescence counts per sec/total luminescence counts remaining).

Pst DC3000 = test: Induced resistance assay in Arabidopsis plants; assay type: in vivo, Pseudomonas syringae pv. tomato; settings: FIG. 1J
Description: After two or three days Pst DC3000 was syringe infiltrated into leaves 4 and 5 of the pretreated plants at 1×10^5 CFU/ml. Bacterial growth in infected leaves was determined 4 days later as described (Vlot et al., 2008). Statistical analysis (one-way analysis of variance, ANOVA, with Tukey's multiple comparison post-test) was applied separately for wild type and mutant plants using GraphPad Prism 7.0.

AtFRK1 and AtNHL10 = test: Gene expression analysis (quantitative PCR of defence genes); settings: 1 μM, four hours after elicitation, seedlings, FIG. 1G
AtMPK3 and AtMPK6 = test: Immunoblot analysis of MAPK activation; assay type: cell-based, Arabidopsis thaliana; settings: 5 μM, seedlings, FIG. 1H
Description: MAPK activation was elicited in 14-days-old liquid-grown seedlings as described (Ranf et al., 2015) by adding MAMPs to the final concentrations indicated. […] Proteins were extracted in kinase extraction buffer containing 50 mM Tris/HCl pH 7.5, 100 mM NaCl, 20 mM EGTA, 30 mM beta-glycerophosphate, 30 mM 4-p-Nitrophenylphosphate, 4 mM NaF, 4 mM Na3VO4, 4 mM Na2MoO4, 10 mM DTT, 0.2% Tween 20, and 1× plant protease inhibitor cocktail P9599 (Sigma-Aldrich). […] total protein (according to Bradford Protein Assay, Bio-Rad) was separated by standard SDS polyacrylamide gel-electrophoresis (Mini-PROTEAN Tetra Cell, Bio-Rad) and blotted onto nitrocellulose membrane (Amersham™ Protran™ 0.2 μm NC, GE Healthcare) using a Trans-Blot® SD Semi-Dry Transfer Cell (Bio-Rad). Membranes were blocked in Protein-Free TBS Blocking Buffer (Pierce™) and immunostained with anti-phospho-MPK antibody (anti-phospho-p44/42-ERK, 1:1000, Cell Signaling Technology #9101) and anti-rabbit-IgG-peroxidase conjugate (A9169, 1:50000, Sigma-Aldrich) using SuperSignal™ West Dura Extended Duration Substrate (Thermo Scientific). ECL chemiluminescence was detected using a Fusion SL camera (Vilber Lourmat). Membranes were stained with Amido black to assess equal protein loading.

[4] = sample conc. used for biological assays 5 μM
[5] = wild-type Arabidopsis plants pre-treated with 10 μM, titre at 4 dpi
[6] = sample conc. used for biological assays 1 μM-5 μM (mostly)

CCCCCCC(O)CCC(=O)O (stereo not drawn) [Compound 19, 4-hydroxydecanoic acid]
LORE-dependent ROS production (LORE [1]): did not elicit LORE-dependent ROS production

CCCCCCCC(O)CC(=O)N[C@H]1CCOC1=O (stereo partly drawn) [Compound 41, N-(3-Hydroxydecanoyl)-L-homoserine lactone]
early PTI signalling reactions (LORE [2]): did not elicit significant early PTI signalling reactions | PTI in Arabidopsis (LORE [2]; [4]): No

CCCCCCCC(O)CC(=O)OC(C)(C)C (stereo not drawn) [Compound 30, tert-butyl-3-hydroxydecanoate]
elicitor activity (LORE [2]): inactive

CCCCCC(O)CCCC(=O)O (stereo not drawn) [Compound 20, 5-hydroxydecanoic acid]
LORE-dependent ROS production (LORE [1]): did not elicit LORE-dependent ROS production

CCCCCCCC(CC(=O)O)OC (stereo not drawn) [Compound 24, 3-methoxydecanoic acid]
elicitor activity ([Ca^2+]cyt response) (LORE [3]): abolished elicitor activity

CCCCCCCC(Cl)CC(=O)OC (stereo not drawn) [Compound 22, methyl 3-chlorodecanoate]
elicitor activity ([Ca^2+]cyt response) (LORE [3]): abolished elicitor activity

CCCCCCCC(=O)CC(=O)N[C@H]1CCOC1=O [Compound 42, N-(3-Oxodecanoyl)-L-homoserine lactone]
early PTI signalling reactions (LORE [2]): did not elicit significant early PTI signalling reactions | PTI in Arabidopsis (LORE [2]; [4]): No

CCCCCCC[C@@H](O)CC(=O)O [Compound 44, (R)-3-hydroxydecanoic acid]
immune signalling ([Ca^2+]cyt elevations) (LORE [3]; different concentrations, Arabidopsis seedlings, FIG. 6A): induced stronger immune signalling than (S)-3-OH—C10:0 (45)

CCCCCCC/C=C/C(=O)O [Compound 18, (E)-dec-2-enoic acid]
PTI responses ([Ca^2+]cyt signalling, ROS production, defence gene induction, MAPK activation; ROS in LORE-GFP-expressing N. benthamiana) (LORE [2]): weak and independent of LORE

CCCCCCCCCC(=O)NC1CCOC1=O (racemic) [Compound 43, N-Decanoyl-DL- homoserine lactone]
PTI in Arabidopsis (LORE [2]; [4]): No

CCCCCCC/C=C\C(=O)O [Compound 17, (Z)-dec-2-enoic acid]
PTI responses ([Ca^2+]cyt signalling, ROS production, defence gene induction, MAPK activation; ROS in LORE-GFP-expressing N. benthamiana) (LORE [2]): weak and independent of LORE

CCCCCCCC(O)CC (stereo not drawn) [Compound 27, decan-3-ol]
PTI responses (LORE [2]): neither 3-decanol nor 1,3-decandiol elicited PTI responses

CCCCCCCC(CC(=O)O)OC(C)=O (stereo not drawn) [Compound 25, 3-acetoxydecanoic acid]
elicitor activity ([Ca^2+]cyt response) (LORE [3]): abolished elicitor activity

CCCCCCCC(O)CC(=O)O (racemic) [Compound 1, 3-hydroxydecanoic acid]
systemic resistance to infection with Pst DC3000 (Pst DC3000; lore-1 mutant plants pre-treated with 10 μM): systemic resistance was not activated | systemic resistance to infection with Pst DC3000 (Pst DC3000; [5]): more resistant to subsequent infection with virulent Pst DC3000 | elicitor activity (LORE [2]): strongest elicitor activity | LORE-dependent (LORE [2]; [6]): Yes | PTI in Arabidopsis (LORE [2]; [6]): Yes | LORE-dependent (LORE [2]; [4]): Yes | PTI in Arabidopsis (LORE [2]; [4]): Yes | [Ca^2+]cyt or ROS signals (LORE [2]; subsequent application after mc-3-OH-FA-depleted LPS, FIG. 4A-C, FIG. 5): typical [Ca^2+]cyt or ROS signals were induced | transcript accumulation of PTI response genes AtFRK1 and AtNHL10 (AtFRK1 and AtNHL10): induced transcript accumulation | phosphorylation of AtMPK3 and AtMPK6 (AtMPK3 and AtMPK6): phosphorylation of mitogen-activated protein kinases (MAPK), AtMPK3 and AtMPK6 | [Ca^2+]cyt elevations (LORE [3]; Col-0^AEQ seedlings, different concentrations (nanomolar to micromolar range), FIG. 1C): sufficient to elicit [Ca^2+]cyt elevations

CCCCCCCC(O)CCO (stereo not drawn) [Compound 28, decane-1,3-diol]
PTI responses (LORE [2]): neither 3-decanol nor 1,3-decandiol elicited PTI responses

CCCCCCCC(=O)CC(=O)O [Compound 23, 3-oxodecanoic acid]
elicitor activity ([Ca^2+]cyt response) (LORE [3]): induced a moderate LORE-dependent [Ca^2+]cyt response

CCCCCCCCCCCC(O)CC(=O)O (racemic) [Compound 7, 3-hydroxytetradecanoic acid]
systemic resistance to infection with Pst DC3000 (Pst DC3000; [5]): did not establish systemic resistance to bacterial infection | PTI signalling (LORE [2]; FIG. 1D-H): did not induce PTI signalling
